Assay results from patent publication US8674113B2, “Compounds” (Boehringer Ingelheim International GmbH, priority 2010, dated 2014).
Like-named read-outs stand apart in the source and are kept apart here.

Experiments:
mPGES-1 in A549 cells = mPGES-1 in A549 cells (Homo sapiens (Human), UniProt O14684); experiment: A549 cell-based assay (PGE2 formation, 50% human serum)
In short: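 PGE2 release, read by HTRF and set to 100% for vehicle, gave IC50s from 6-8 point titrations. Human A549 cells were exposed to compound for 20-24 h in medium with 50% human serum, with IL-1β (5 ng/ml) and arachidonic acid (10 nM) as stimulus.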

[1] = molecular target: recombinant human mPGES-1 (Homo sapiens (Human), UniProt O14684); experiment: mPGES-1 enzyme assay (HTRF detection of PGE2); type: biochemical
Chain of recombinant human mPGES-1 (O14684 whole entry): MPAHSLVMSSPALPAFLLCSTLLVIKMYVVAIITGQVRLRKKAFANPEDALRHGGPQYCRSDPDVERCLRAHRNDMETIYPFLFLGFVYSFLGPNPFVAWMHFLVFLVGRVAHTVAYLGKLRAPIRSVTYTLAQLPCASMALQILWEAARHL
Description: Microsomes from Rosetta E. coli bacteria expressing recombinant human mPGES-1 can be derived as described below:
Inoculate 5 ml LB with Ampicilin (50 μg/ml) and Chloramphenicol (34 μg/ml) with bacteria from freeze culture. Incubate 8 h at 37° C. with 200 rpm. Thereafter, inoculate 500-1000 ml LB containing Amp and Chloro with the 5 ml on culture and grow to OD640 of 0.8-1.0. Chill the culture to +4° C. before induction. Induce the culture with IPTG at a final concentration of 400 μM. Express the protein at room temp 18-23° C. with 200 rpm shaking over night.
The following steps can be performed on the following day: • 1. Spin down the cells in 250 ml centrifuge flasks for 15 min at 7000 rpm (Beckmann Coulte Avanti J-E centrifuge) • 2. Dissolve the pellet from 250 ml culture in 12.5 ml homogenization buffer • 3. (15 mM Tris-HCL pH8, 1 mM EDTA pH8, […], 2.5 mM GSH, 1 Tablet Protease inhibitor per 50 ml buffer) • 4. Disintegrate the cells by sonication, 5×10 seconds at 48% amplitude of a 750 W sonifier • 5. Add 2.5 ml MgCl2 (100 mM) and DNase 12.5 μl (0.8 mg/ml) and incubate on ice for 30 min • 6. Spin down the bacteria debris and save the supernatant, 7000 rpm for 15 min • 7. Isolate the protein containing membranes in the supernatant by ultracentrifugation 120000×g for 2 hour at 4° C. (Sorvall T880 rotor). • 8. Discard the supernatant and dissolve the pellet in 20 mM Potassium phosphate buffer pH7.4 (KH2PO4 and K2HPO4) buffer by sonication (5×10 s, 30% of a 50 W sonifier) and aliquot the enzyme and store aliquots at −80° C.
Before each experiment is performed an aliquot of the enzyme is thawed and it can then be dissolved in 0.1 M Potassium phosphate buffer pH7.4 (KH2PO4 and K2HPO4) buffer containing 2.5 mM GSH.
The aim of this assay is to determine the affinity of a test compound for the mPGES-1 enzyme.
47 μl of recombinant human mPGES-1 (˜0.5 μg protein/well) containing microsomal suspension in a buffer containing GSH, (2.5 mmol/L L-Glutathione reduced, dissolved in 0.1 mol/L Phosphat Buffer pH 7.4) is dispensed in a 384-well plate and thereafter 1 μl of the test compound(s) is/are added and incubated for 25 minutes at room temperature. The enzyme reaction is started by the addition of 2 ul PGH2 (final conc 2 μM) disolved in water-free Diglyme. After 60 seconds the reaction is terminated by addition of a stop solution containing FeCl2 (10 μL 0.074 mol/l FeCl2). The samples are diluted between 1:25 in PBS (Phosphate Buffered Saline). 10 μl of the diluted samples are transferred to 384-well low volume plate. In order to quantify the amount of PGE2 that has been formed, a homogenous time resolved fluorescent (HTRF) detecting of PGE2 has been performed using a commercially available kit from Cisbio according to the manufactures recommendation. This HTRF-based assay has been described in detail (see: Goedken et al., J Biomol Screen, 2008, 13(7), 619-625). Briefly, the diluted samples are mixed with 5 μl PGE2-d2 conjugate and 5 μl anti-PGE2 cryptate conjugate. After an incubation period of the plates over night, the fluorescence is measured by the use of an appropriate microplate reader.
The fluorescence of Europium cryptate (maxex=307 nm, maxem=620 nm) and d2-PGE2 (maxex=620 nm, maxem=665 nm) are measured.
The extent of the specific HTRF is measured as a ratio of the emission intensity at 665 nm vs. that at 620 nm at an excitation puts of 320 nm. The quantification plate contains also wells with different concentrations of PGE2 as calibration curve for the calculation of the PGE2 concentrations from the HTRF ratio values.
From all mPGES enzyme assay the background is subtracted and the IC50 is calculated over a nonlinear regression with conventional software.

[2] = IL-1β 5 ng/ml, 10 nM arachidonic acid, 20-24 h, read-out: mPGES-1 inhibitory effect IC50 in the cell assay
[3] = recombinant human mPGES-1 microsomes, PGH2 2 μM, 60 seconds, read-out: mPGES-1 inhibitory effect IC50 in the enzyme assay

Chain of mPGES-1 in A549 cells (O14684 whole entry): as above

| IC50 (mPGES-1 in A549 cells; [2]) [nM] | IC50 [1, 3] [nM] | IC50 (mPGES-1 in A549 cells; Table C comparison of selected benzimidazoles, read-out: Cell IC50) [nM] | IC50 ([1]; Table C comparison of selected benzimidazoles, read-out: Enzym IC50) [nM] | SMILES |
| --- | --- | --- | --- | --- |
| 144 | 5 |  |  | Cn1c(Nc2c(Cl)ccc(CNC(=O)C(C)(C)C)c2Cl)nc2cc(C(=O)NCC(F)(F)F)c(Nc3ccc(F)c(Cl)c3)cc21 [Example 30] |
| 33 | 4 |  |  | CN(c1ccc(F)c(Cl)c1)c1cc2c(cc1C(=O)NCC(F)(F)F)nc(Nc1c(Cl)ccc(CNC(=O)C(C)(C)C)c1Cl)n2C [Example 31] |
| 6 | 2 |  |  | Cn1c(Nc2c(Cl)ccc(CNC(=O)C(C)(C)C)c2Cl)nc2cc(C(=O)NCC(F)(F)F)c(N3CCc4ccc(Cl)cc4C3)cc21 [Example 32] |
| 8 | 3 |  |  | Cc1nc2c(s1)CN(c1cc3c(cc1C(=O)NCC(F)(F)F)nc(Nc1c(Cl)ccc(CNC(=O)C(C)(C)C)c1Cl)n3C)C2 [Example 33] |
| 1 | 3 |  |  | CN(CCC(F)(F)F)c1cc2c(cc1C(=O)NCC(F)(F)F)nc(Nc1c(Cl)ccc(CNC(=O)C(C)(C)C)c1Cl)n2C [Example 34] |
| 6.5 | 5 |  |  | CC(NC(=O)c1cc2nc(Nc3c(Cl)ccc(CNC(=O)C(C)(C)C)c3Cl)n(C)c2cc1N1CCC(F)(F)C1)c1cccs1 (centres unmarked) [Example 36] |
| 3 | 5 |  |  | Cn1c(Nc2c(Cl)ccc(CNC(=O)C(C)(C)C)c2Cl)nc2cc(C(=O)NC3(c4ccc(F)cc4)CC3)c(N3CCC(F)(F)C3)cc21 [Example 37] |
| 6 | 4 |  |  | Cn1c(Nc2c(Cl)ccc(CNC(=O)C(C)(C)C)c2Cl)nc2cc(C(=O)NC(c3ccccn3)C(F)(F)F)c(N3CCC(F)(F)C3)cc21 (centres unmarked) [Example 38] |
| 2 | 1 |  |  | CC(NC(=O)c1cc2nc(Nc3c(Cl)ccc(CNC(=O)C(C)(C)C)c3Cl)n(C)c2cc1N1CCC(F)(F)C1)C(F)(F)F (centres unmarked) [Example 39] |
| < 1 | 2 |  |  | Cn1c(Nc2c(Cl)ccc(CNC(=O)C(C)(C)C)c2Cl)nc2cc(C(=O)Nc3cccc(OC(F)(F)F)c3)c(N3CCC(F)(F)C3)cc21 [Example 40] |
| 7 | 2 |  |  | Cn1c(Nc2c(Cl)ccc(CNC(=O)C(C)(C)C)c2Cl)nc2cc(C(=O)N[C@H](c3ccccc3)C(F)(F)F)c(N3CCC(F)(F)C3)cc21 [Example 41] |
| 2 | 2 |  |  | Cn1c(Nc2c(Cl)ccc(CNC(=O)C(C)(C)C)c2Cl)nc2cc(C(=O)Nc3ccc(F)c(Cl)c3)c(N3CCC(F)(F)C3)cc21 [Example 42] |
| 5 | 3 |  |  | Cn1c(Nc2c(Cl)ccc(CNC(=O)C(C)(C)C)c2Cl)nc2cc(C(=O)NCc3ncccc3C(F)(F)F)c(N3CCC(F)(F)C3)cc21 [Example 43] |
| 6 | 4 |  |  | Cn1c(Nc2c(Cl)ccc(CNC(=O)C(C)(C)C)c2Cl)nc2cc(C(=O)NCc3ccc(F)cc3C(F)(F)F)c(N3CCC(F)(F)C3)cc21 [Example 44] |
| 7 | 5 | 7 | 5 | Cn1c(Nc2c(Cl)ccc(CNC(=O)C(C)(C)C)c2Cl)nc2cc(C(=O)NCC3CC3)c(N3CCC(F)(F)C3)cc21 [Example 45] |
| 7 | 3 |  |  | Cn1c(Nc2c(Cl)ccc(CNC(=O)C(C)(C)C)c2Cl)nc2cc(C(=O)NCCCC(F)(F)F)c(N3CCC(F)(F)C3)cc21 [Example 46] |
| 1 | 2 |  |  | Cn1c(Nc2c(Cl)ccc(CNC(=O)C(C)(C)C)c2Cl)nc2cc(C(=O)Nc3cccc(C(F)(F)F)n3)c(N3CCC(F)(F)C3)cc21 [Example 47] |
| 8 | 2 |  |  | Cn1c(Nc2c(Cl)ccc(CNC(=O)C(C)(C)C)c2Cl)nc2cc(C(=O)NC(Cc3ccccc3)C(F)(F)F)c(N3CCC(F)(F)C3)cc21 (centres unmarked) [Example 48] |
| 4 | 4 |  |  | CC(C)C(NC(=O)c1cc2nc(Nc3c(Cl)ccc(CNC(=O)C(C)(C)C)c3Cl)n(C)c2cc1N1CCC(F)(F)C1)C(F)(F)F (centres unmarked) [Example 49] |
| 2 | 3 |  |  | Cn1c(Nc2c(Cl)ccc(CNC(=O)C(C)(C)C)c2Cl)nc2cc(C(=O)NCC(F)(F)C(F)(F)F)c(N3CCC(F)(F)C3)cc21 [Example 50] |
| < 1 | 3 |  |  | Cn1c(Nc2c(Cl)ccc(CNC(=O)C(C)(C)C)c2F)nc2cc(C(=O)Nc3ccc(F)c(Cl)c3)c(N3CCC(F)(F)C3)cc21 [Example 51] |
| 1 | 2 |  |  | Cn1c(Nc2c(Cl)ccc(CNC(=O)C(C)(C)C)c2Cl)nc2cc(C(=O)NCC(F)(F)C(F)(F)F)c(N3CCC(C(F)(F)F)CC3)cc21 [Example 53] |
| 5 | 2 |  |  | Cn1c(Nc2c(Cl)ccc(CNC(=O)C(C)(C)C)c2Cl)nc2cc(C(=O)Nc3cccc(C(F)(F)F)n3)c(N3CCC(C(F)(F)F)CC3)cc21 [Example 55] |
| < 1 | 1 |  |  | Cn1c(Nc2c(Cl)ccc(CNC(=O)C(C)(C)C)c2Cl)nc2cc(C(=O)Nc3ccc(Cl)c(F)c3)c(N3CCC(C(F)(F)F)CC3)cc21 [Example 56] |
| 1 | 1 |  |  | Cn1c(Nc2c(Cl)ccc(CNC(=O)C(C)(C)C)c2Cl)nc2cc(C(=O)Nc3ccc(OC(F)(F)F)cc3)c(N3CCC(C(F)(F)F)CC3)cc21 [Example 57] |
| 1 | 3 |  |  | Cn1c(Nc2c(Cl)ccc(CNC(=O)C(C)(C)C)c2Cl)nc2cc(C(=O)NC3(c4ccc(F)cc4)CC3)c(N3CCC(C(F)(F)F)CC3)cc21 [Example 58] |
| < 1 | 4 |  |  | Cn1c(Nc2c(Cl)ccc(CNC(=O)C(C)(C)C)c2Cl)nc2cc(C(=O)NC3CCN(CC(F)(F)F)CC3)c(N3CCC(C(F)(F)F)CC3)cc21 [Example 59] |

| SMILES | IC50 (mPGES-1 in A549 cells; [2]) [nM] | IC50 [1, 3] [nM] | IC50 (mPGES-1 in A549 cells; Table C comparison of selected benzimidazoles, read-out: Cell IC50) [nM] | IC50 ([1]; Table C comparison of selected benzimidazoles, read-out: Enzym IC50) [nM] |
| --- | --- | --- | --- | --- |
| Cn1c(Nc2c(Cl)ccc(CNC(=O)C(C)(C)C)c2Cl)nc2cc(C(=O)NCC(F)(F)F)c(N3CCC(C(C)(C)O)CC3)cc21 [Example 29, N-(2,2,2-Trifluoroethyl)-2-{2,6-dichloro-3-[(2,2-dimethyl-propionylamino)-methyl]-phenylamino}-6-[4-(1-hydroxy-1-methyl-ethyl)-piperidinyl]-1-methyl-1H-benzimidazole-5-carboxylic acid amide] | 3 | 2 |  |  |
| Cn1c(Nc2c(Cl)ccc(CNC(=O)C(C)(C)C)c2Cl)nc2cc(C(=O)Nc3ccc(OC(F)(F)F)cc3)c(N3CCC(F)(F)C3)cc21 [Example 35, N-(4-Trifluoromethoxy-phenyl)-2-{2,6-dichloro-3-[(2,2-dimethyl-propionylamino)-methyl]-phenylamino}-6-[3,3-difluoro-pyrrolidinyl]-1-methyl-1H-benzimidazole-5-carboxylic acid amide] | 1 | 2 |  |  |
| Cn1c(Nc2c(Cl)ccc(CNC(=O)C(C)(C)C)c2Cl)nc2cc(C(=O)Nc3ccc(F)c(Cl)c3)c(N3CCC(C(F)(F)F)CC3)cc21 [Example 54, N-(3-Chloro-4-fluoro-phenyl)-2-{2,6-dichloro-3-[(2,2-dimethyl-propionylamino)-methyl]-phenylamino}-6-[4-trifluoromethyl-piperidinyl]-1-methyl-1H-benzimidazole-5-carboxylic acid amide] | 1.4 | 2 |  |  |
